Source: patent publication US12065428B2, “Anti-viral compounds” (Aligos Therapeutics, Inc., priority 2021, dated 2024)
pEC50, pIC50: −log10 of the molar value. Like-named read-outs stand apart in the source and are kept apart here.

How the values were obtained:
[1] = target: T1, SARS-Cov-2 3CLpro (Severe acute respiratory syndrome coronavirus 2, UniProt P0DTD1); assay: SARS-Cov-2 3CLpro and HRV3C duplex assay (SAMDI-MS): 3CLpro; type: biochemical
T1 construct: SARS-Cov-2 3CLpro and HRV3C Duplex Assay

[2] = target: T2, HRV3C (Human rhinovirus 14, UniProt P03303); assay: biochemical
T2 construct: SARS-Cov-2 3CLpro and HRV3C Duplex Assay

[3] = tested on: human beta-coronavirus OC43; assay: OC43 coronavirus assay in HeLa cells (cytopathic effect, cell-titer-glo); type: cell-based
[4] = Cytotoxicity plates without OC43 virus in HeLa cells; type: cell-based; settings: human, HeLa cells (uninfected)
Protocol: The human beta-coronavirus OC43 was purchased from ATCC (Manassas, VA) and propagated using HCT-8 human colorectal epithelial cells (ATCC). HeLa human cervical epithelial cells (ATCC) were used as susceptible host cell lines and were cultured using EMEM media, supplemented with 10% fetal bovine serum (FBS), 1% (v/v) penicillin/streptomycin (P/S), 1% (v/v) HEPES and 1% (v/v) cellgro Glutagro™ supplement (all Corning, Manassas, VA) at 37° C. For the OC43 antiviral assay, 1.5×10^4 HeLa cells per well were plated in 100 μL complete media in white 96-well plates with clear bottoms at 37° C. for up to 24 h to facilitate attachment and allow cells to recover from seeding stresses. Next day, the cell culture medium was removed. Serially diluted compounds in 100 μL assay media (EMEM, 2% FBS, 1% P/S, 1% cellgro Glutagro™ supplement, 1% HEPES) were added to the cells and incubated for 4H at 37° C. in a humidified 5% CO2 incubator. 100 μL of OC43 virus stock was diluted to a concentration known to produce optimal cytopathic effect, inducing 80-90% reduction in cell viability. 96-well plates were incubated for 6 (HeLa) days at 33° C.; each plate contains uninfected control wells as well as virus-infected wells that were not treated with compound. Cytotoxicity plates without the addition of OC43 virus were carried out in parallel. At the end of the incubation period, 100 μL cell culture supernatant was replaced with 100 μL cell-titer-glo reagent (Promega, Madison, WI) and incubated for at least 10 min at rt prior to measuring luminescence. Luminescence was measured on a Perkin Elmer (Waltham, MA) Envision plate reader. Antiviral % inhibition was calculated as follows: [(Compound treated cells infected sample)−(no compound infected control)]/[(Uninfected control)−(no compound infected control)]*100; Using GraphPad (San Diego, CA) prism software version 8.3.1, the antiviral dose-response plot was generated as a sigmoidal fit, log(inhibitor) vs response-variable slope (four parameters) model and the EC50 was calculated which is the predicted compound concentration corresponding to a 50% inhibition of the viral cytopathic effect.

[5] = tested on: SARS-CoV-2-GHB-03021/2020; assay: microbe, parasite or virus in culture; type: cell-based
[6] = target: T3, human cathepsin L (Homo sapiens, UniProt P07711); assay: Cathepsin L assay (Z-FR-AMC fluorescence); type: biochemical; settings: 10 pM human cathepsin L, 30 mins preincubation; class symbols
T3 construct: purchased R&D Systems
Protocol: For the cathepsin L assay, 10 pM of human cathepsin L (R&D Systems; Minneapolis, MN) was preincubated for 30 mins with test compounds. Reactions were initiated by the addition of a peptide substrate Z-FR-AMC (final concentration 2 μM, Anaspec; Fremont, CA). Fluorescence was measured at 2-minute intervals for 30 mins using a 355/460 excitation/emission filter module on an Envision plate reader (Perkin Elmer; Waltham, MA). The IC50 values were calculated for each assay by fitting the curves using a four-parameter equation in GraphPad Prism.

[7] = 3CLpro, duplex assay, 30 mins preincubation, class symbols, read-out: SARS-Cov-2 IC50
[8] = HRV3C, duplex assay, 30 mins preincubation, class symbols, read-out: HRV IC50
[9] = Betacoronavirus 1, 144 h, OC43 in HeLa cells, 6 days at 33° C., class symbols, read-out: EC50
[10] = Severe acute respiratory syndrome coronavirus 2, Vero C1008, 96 h; read-out: VeroE6 + CP (EC50)

T3 sequence (P07711 114-333): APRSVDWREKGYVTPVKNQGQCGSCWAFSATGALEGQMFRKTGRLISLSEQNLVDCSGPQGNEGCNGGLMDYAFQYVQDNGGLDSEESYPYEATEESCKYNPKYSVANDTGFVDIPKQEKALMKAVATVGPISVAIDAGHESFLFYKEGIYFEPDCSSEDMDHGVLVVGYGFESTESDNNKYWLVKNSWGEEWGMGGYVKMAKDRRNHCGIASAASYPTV
T2 sequence (P03303 1538-1719): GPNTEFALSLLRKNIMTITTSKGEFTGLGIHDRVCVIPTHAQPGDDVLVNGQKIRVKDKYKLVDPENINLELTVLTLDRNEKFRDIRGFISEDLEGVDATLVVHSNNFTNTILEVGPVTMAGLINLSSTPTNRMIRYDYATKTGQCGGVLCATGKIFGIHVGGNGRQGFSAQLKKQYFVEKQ

SMILES | pIC50 [1, 7] | pIC50 [2, 8] | pEC50 [3, 9] | CC50 at 6 days ([4]; class symbols) [nM] | pEC50 [5, 10] | pIC50 [6] | pIC50 ([2]; read-out: HRV IC50) | CC50 at 6 days ([4]; numeric bound, unit inferred) [nM] | pIC50 ([2]; HRV3C, duplex assay, numeric bound: >10 indicates an IC50>10000 nM, read-out: HRV IC50) | pEC50 ([3]; Betacoronavirus 1, OC43, HeLa) | pIC50 [1] | pIC50 [2] | pEC50 ([5]; Severe acute respiratory syndrome coronavirus 2, Vero C1008, 96 h, read-out: VeroE6 + CP (EC50))
O=C(NC1CC1)C(=O)[C@H](C[C@@H]1CCNC1=O)NC(=O)[C@@H]1CC2(CCN1C(=O)c1cc3ccccn3n1)CC2 [Example 9] | 5.70 to 6.70 | 4.70 to 5.70 | 5.00 to 6.00 | ≥ 100000 | 5.00 to 6.00 | ≤ 5.00 | – | – | – | – | – | – | –
O=C(NC1CC1)C(=O)C(C[C@@H]1CCNC1=O)NC(=O)[C@@H]1[C@@H]2C[C@@H](CC23CC3)N1C(=O)c1nc(-c2ccccc2)cs1 (stereo partly drawn) [Compound 26, N-cyclopropyl-2-oxo-4-[(3S)-2-oxopyrrolidin-3-yl]-3-[(1R,4S,6S)-5-(4-phenyl-1,3-thiazole-2-carbonyl)-5-azaspiro[bicyclo[2.2.1]heptane-2,1′-cyclopropan]-6-ylformamido]butanamide] | 5.70 to 6.70 | 5.70 to 6.70 | 5.00 to 6.00 | ≥ 100000 | 5.00 to 6.00 | ≤ 5.00 | – | – | – | – | – | – | –
O=C(NC1CC1)C(=O)C(C[C@@H]1CCNC1=O)NC(=O)[C@@H]1CC2(CCN1C(=O)c1cc3cccc4c3n1CCC4)CC2 (stereo partly drawn) [Compound 19, 3-{[(5S)-6-{1-azatricyclo[6.3.1.0^{4,12}]dodeca-2,4(12),5,7-tetraene-2-carbonyl}-6-azaspiro[2.5]octan-5-yl]formamido}-N-cyclopropyl-2-oxo-4-[(3S)-2-oxopyrrolidin-3-yl]butanamide] | > 7.70 | 5.70 to 6.70 | 5.00 to 6.00 | ≥ 100000 | > 6.00 | 5.00 to 6.00 | – | – | – | – | – | – | –
COc1ccccc1-c1csc(C(=O)N2CCC3(CC3)C[C@H]2C(=O)N[C@@H](C[C@@H]2CCNC2=O)C(=O)C(=O)NC2CC2)n1 [Compound 42] | 5.70 to 6.70 | – | 6.00 to 7.00 | – | 5.00 to 6.00 | ≤ 5.00 | < 5.00 | > 100000 | – | – | – | – | –
Cc1sc(C(=O)N2CCC3(CC3)C[C@H]2C(=O)N[C@@H](C[C@@H]2CCNC2=O)C(=O)C(=O)NC2CC2)nc1-c1ccccc1 [Compound 38] | 5.70 to 6.70 | 4.70 to 5.70 | 6.00 to 7.00 | – | 5.00 to 6.00 | ≤ 5.00 | – | > 100000 | – | – | – | – | –
N#C[C@H](C[C@@H]1CCNC1=O)NC(=O)[C@@H]1CC2(CCN1C(=O)c1ncc(-c3ccccc3)s1)CC2 [Example 52, (S)—N—((S)-1-cyano-2-((S)-2-oxopyrrolidin-3-yl)ethyl)-6-(5-phenylthiazole-2-carbonyl)-6-azaspiro[2.5]octane-5-carboxamide] | 5.70 to 6.70 | – | – | – | 4.00 to 5.00 | ≤ 5.00 | – | > 100000 | < 5.00 | < 5.00 | – | – | –
O=C(NC1CC1)C(=O)[C@H](C[C@@H]1CCNC1=O)NC(=O)[C@@H]1CC2(CCN1C(=O)C1Cc3ccccc3C1)CC2 [Example 6, (S)—N—((S)-4-(cyclopropylamino)-3,4-dioxo-1-((S)-2-oxopyrrolidin-3-yl)butan-2-yl)-6-(2,3-dihydro-1H-indene-2-carbonyl)-6-azaspiro[2.5]octane-5-carboxamide] | 6.70 to 7.70 | 5.70 to 6.70 | 6.00 to 7.00 | ≥ 100000 | > 6.00 | ≤ 5.00 | – | – | – | – | – | – | –
O=C(NC1CC1)C(=O)[C@H](C[C@@H]1CCNC1=O)NC(=O)[C@@H]1CC2(CCN1C(=O)c1ccc3c(c1)OCO3)CC2 [Compound 16, (3S)-3-{[(5S)-6-(2H-1,3-benzodioxole-5-carbonyl)-6-azaspiro[2.5]octan-5-yl]formamido}-N-cyclopropyl-2-oxo-4-[(3S)-2-oxopyrrolidin-3-yl]butanamide] | – | 4.70 to 5.70 | 5.00 to 6.00 | ≥ 100000 | 5.00 to 6.00 | ≤ 5.00 | – | – | – | – | 6.70 to 7.70 | – | –
CC(C)(C)c1csc(C(=O)N2CCC3(CC3)C[C@H]2C(=O)N[C@@H](C[C@@H]2CCNC2=O)C(=O)C(=O)NC2CC2)n1 [Compound 39] | 5.70 to 6.70 | 4.70 to 5.70 | 6.00 to 7.00 | – | 5.00 to 6.00 | 5.00 to 6.00 | – | > 100000 | – | – | – | – | –
CC(C)(C)[C@H](NC(=O)C(F)(F)F)C(=O)N1[C@H]2C[C@@H]([C@H]1C(=O)N[C@H](C#N)C[C@@H]1CCNC1=O)C1(CC1)C2 [Compound 50, (1R,4S,6S)—N-[(1S)-1-cyano-2-[(3S)-2-oxopyrrolidin-3-yl]ethyl]-5-[(2S)-3,3-dimethyl-2-(2,2,2-trifluoroacetamido)butanoyl]-5-azaspiro[bicyclo[2.2.1]heptane-2,1′-cyclopropane]-6-carboxamide] | > 7.70 | – | > 7.00 | – | > 6.00 | ≤ 5.00 | < 5.00 | > 100000 | – | – | – | – | –
O=C(NC1CC1)C(=O)[C@H](C[C@@H]1CCNC1=O)NC(=O)[C@@H]1CC2(CCN1C(=O)[C@@H]1C[C@H]1c1ccccc1)CC2 [Compound 48] | 6.70 to 7.70 | 5.70 to 6.70 | 6.00 to 7.00 | – | 5.00 to 6.00 | 5.00 to 6.00 | – | > 100000 | – | – | – | – | –
Cn1ncc2c1CC(C(=O)N1CCC3(CC3)C[C@H]1C(=O)NC(C[C@@H]1CCNC1=O)C(=O)C(=O)NC1CC1)CC2 (stereo partly drawn) [Compound 14, (5S)—N-(4-(cyclopropylamino)-3,4-dioxo-1-((S)-2-oxopyrrolidin-3-yl)butan-2-yl)-6-(1-methyl-4,5,6,7-tetrahydro-1H-indazole-6-carbonyl)-6-azaspiro[2.5]octane-5-carboxamide] | 6.70 to 7.70 | 5.70 to 6.70 | – | ≥ 100000 | 4.00 to 5.00 | ≤ 5.00 | – | – | – | < 5.00 | – | – | –
COc1ccc2cc(C(=O)N3CCC4(CC4)C[C@H]3C(=O)N[C@@H](C[C@@H]3CCNC3=O)C(=O)C(=O)NC3CC3)n(C)c2c1 [Compound 29] | > 7.70 | 4.70 to 5.70 | 6.00 to 7.00 | ≥ 100000 | > 6.00 | ≤ 5.00 | – | – | – | – | – | – | –
O=C(NC1CC1)C(=O)C(C[C@@H]1CCNC1=O)NC(=O)[C@@H]1CC2(CCN1C(=O)c1cc3ccccc3n1-c1ccccc1)CC2 (stereo partly drawn) [Compound 22, N-cyclopropyl-2-oxo-4-[(3S)-2-oxopyrrolidin-3-yl]-3-{[(5S)-6-(1-phenylindole-2-carbonyl)-6-azaspiro[2.5]octan-5-yl]formamido}butanamide] | > 7.70 | – | 6.00 to 7.00 | 10000 to 100000 | – | ≤ 5.00 | – | – | – | – | – | 5.70 to 6.70 | > 6.00
Cn1nc(C(=O)N2CCC3(CC3)C[C@H]2C(=O)NC(C[C@@H]2CCNC2=O)C(=O)C(=O)NC2CC2)cc1-c1ccccc1 (stereo partly drawn) [Compound 17, (5S)—N-(4-(cyclopropylamino)-3,4-dioxo-1-((S)-2-oxopyrrolidin-3-yl)butan-2-yl)-6-(1-methyl-5-phenyl-1H-pyrazole-3-carbonyl)-6-azaspiro[2.5]octane-5-carboxamide] | 5.70 to 6.70 | 4.70 to 5.70 | 5.00 to 6.00 | ≥ 100000 | 5.00 to 6.00 | ≤ 5.00 | – | – | – | – | – | – | –
COc1ccc(-c2csc(C(=O)N3CCC4(CC4)C[C@H]3C(=O)N[C@@H](C[C@@H]3CCNC3=O)C(=O)C(=O)NC3CC3)n2)cc1 [Compound 37] | 5.70 to 6.70 | 5.70 to 6.70 | 6.00 to 7.00 | – | 5.00 to 6.00 | ≤ 5.00 | – | > 100000 | – | – | – | – | –
Cc1ccc2cc(C(=O)N3CCC4(CC4)C[C@H]3C(=O)N[C@@H](C[C@@H]3CCNC3=O)C(=O)C(=O)NC3CC3)n(C)c2c1 [Compound 30] | 6.70 to 7.70 | – | 6.00 to 7.00 | ≥ 100000 | > 6.00 | ≤ 5.00 | < 5.00 | – | – | – | – | – | –
